Data published in patent US10010585B2, “Methods of treating vestibular schwannoma and reducing hearing or neurite loss caused by vestibular schwannoma” (Massachusetts Eye and Ear Infirmary, priority 2014, dated 2018).

What was measured:
primary VS cells [1] = assay: TUNEL cell death assay in primary VS cultures; format: cell-based, human; conditions: 48 hours
Method: Rate of apoptosis in 6 VS cultures was assessed and correlated with tumor growth in vivo and tumor volume. […] Apoptosis was measured using terminal deoxynucleotidyl transferase dUTP nick end labeling (TUNEL, Roche Applied Sciences, NY) following manufacturer's instructions. Briefly, immunofluorescence protocol was followed as described under ‘Immunofluorescence,’ until fixations, then the cells were washed with PBS thrice and incubated in 1% Triton-X for 10 minutes on shaker. The cells were washed with PBS once and incubated in TUNEL mix for 1 hour at 37° C., then for 30 minutes at RT on shaker. The cells were then incubated in rhodamine phalloidin (Life Technologies, NY, 1:40) and Hoechst stain for 20 minutes, washed with PBS thrice and mounted onto slides for imaging. TUNEL and Hoechst stained nuclei were counted in >3 fields and the ratio of TUNEL positive to Hoechst positive nuclei was used to determine apoptosis rate in vitro. A positive control of 10 minutes-DNAse (Roche Applied Sciences, NY) treatment prior to TUNEL labeling was utilized.
(§1) For siRNA treatment, cultured primary VS cells or HEI-193 cells were placed in antibiotic and serum free media overnight. The next day, the cells were incubated with Life Technologies siRNAs targeting NF-κB genes RELA and NF-κB1, with control cells being treated with vehicle only (Lipofectamine RNAiMax), for 5 days. Some cultures were also incubated with a fluorescent random Oligo (Life Technologies) along with vehicle to assess transfection efficiency. siRNA experiments were performed in antibiotic and serum free media.
BAY11 or curcumin, diluted in 100% DMSO, were mixed to the accurate concentrations in warmed media and applied to the cultures (with DMSO concentration in media being 1% maximum), alongside a no-treatment control receiving media alone with appropriate corresponding DMSO levels.
After 48 hours of treatment, primary VS and Schwann cultures were fixed for BrdU staining, to visualize proliferation, or TUNEL staining, to visualize cell death.
After 48 hours of treatment with salicylates, primary VS and SC cultures were fixed for BrdU staining, to visualize proliferation, or TUNEL staining, to visualize cell death.

primary VS cells [2] = assay: BrdU proliferation assay in primary VS cultures; format: cell-based, human; conditions: for proliferation, of the NT cells / proliferation, of the non-treated cells: 48 hours
Method: Proliferation rate of 12 VS cultures was assessed and correlated with the tumor volume in the latest gadolinium enhanced T1-weighted MRI scan prior to surgical resection, and with tumor growth in vivo, measured as changes in the tumor's volume over time calculated from serial MRI scans. Tumor growth was standardized by dividing the growth rate by the initial tumor volume. Separate analyses were performed for solid tumors, which generally account for approximately 96% of VSs (Charabi et al., 1994), versus all studied tumors, which included 4 out of 13 total tumors with a visible cystic component, because cystic components could misrepresent true tumor volume (Charabi et al., 1994). To determine the level of cell proliferation in the cultures, Bromodeoxyuridine (BrdU) was added to the cells at a concentration of 10 μg/ml 20 hours before the cells were fixed. The cells were kept in the dark after the addition of BrdU Immunofluorescence protocol was followed as described under ‘Immunofluorescence,’ and cell and nuclear membranes were permeablized by incubation in 1% Triton-X for 10 minutes and by incubation in 2N Hydrochloric acid for 20 minutes, respectively, after fixation. Primary antibody against BrdU (AbD Serotec, NC, 1:200) and anti-rat IgG (Life Technologies, NY, 1:1000) were used. BrdU- and Hoechst-stained nuclei were counted in 3-5 fields and the ratio of BrdU positive to Hoechst positive nuclei was used to determine the proliferation rate in vitro. […]
(§2) Cultured human primary VS cells, primary SCs and HEI-193 cells were treated with NF-κB inhibitors BAY11-7082 (BAY11) or curcumin for 48 hours (Santa Cruz Biotechnology). BAY11 or curcumin, diluted in 100% DMSO, were mixed to the accurate concentrations in warmed media and applied to the cultures (with DMSO concentration in media being 1% maximum), alongside a no-treatment control receiving media alone with appropriate corresponding DMSO levels. Experiments were performed in media fortified with antibiotics and serum (same formulation as described in Example 1 for culturing cells).
(§3) After 48 hours of treatment, primary VS and Schwann cultures were fixed for BrdU staining, to visualize proliferation, or TUNEL staining, to visualize cell death. The same methodology as described in Example 1 was utilized. Cleaved caspase 3 staining, another apoptosis marker to reinforce findings using TUNEL, was conducted using an antibody against cleaved caspase 3 following the ‘immunofluorescence’ protocol outlined in Example 1.
(§4) The cultures were incubated with the drugs for 48 hours. To label proliferating cells, BrdU was added 20 hours before fixation. pH was measured in the media after drug addition to ensure no significant deviations.
(§5) After 48 hours of treatment with salicylates, primary VS and SC cultures were fixed for BrdU staining, to visualize proliferation, or TUNEL staining, to visualize cell death. The same methodology as described in Example 1 was utilized.
To understand cross-talk between HGF and VEGF-A pathway, cultured VS cells were incubated with Life Technologies silencer select siRNAs targeting VEGFA (s461) or MET (s8700). To understand whether HGF signaling contributed to VS proliferation, cultured VS cells were treated with MET inhibitor SU11274 (Sigma-Aldrich, MO, #S9820). Seventy-two hours after siRNA treatment or 12 hours after treatment with SU11274 (2 μM), cells were incubated with 10 μg/mL BrdU (Life Technologies, NY, # B23151) for 20 hours before fixation.

primary SCs [3] = assay: BrdU proliferation assay in primary Schwann cell cultures; format: cell-based, human; conditions: 48 hours
Method: (§6) Proliferation rate of 12 VS cultures was assessed and correlated with the tumor volume in the latest gadolinium enhanced T1-weighted MRI scan prior to surgical resection, and with tumor growth in vivo, measured as changes in the tumor's volume over time calculated from serial MRI scans. Tumor growth was standardized by dividing the growth rate by the initial tumor volume. Separate analyses were performed for solid tumors, which generally account for approximately 96% of VSs (Charabi et al., 1994), versus all studied tumors, which included 4 out of 13 total tumors with a visible cystic component, because cystic components could misrepresent true tumor volume (Charabi et al., 1994). To determine the level of cell proliferation in the cultures, Bromodeoxyuridine (BrdU) was added to the cells at a concentration of 10 μg/ml 20 hours before the cells were fixed. The cells were kept in the dark after the addition of BrdU Immunofluorescence protocol was followed as described under ‘Immunofluorescence,’ and cell and nuclear membranes were permeablized by incubation in 1% Triton-X for 10 minutes and by incubation in 2N Hydrochloric acid for 20 minutes, respectively, after fixation. Primary antibody against BrdU (AbD Serotec, NC, 1:200) and anti-rat IgG (Life Technologies, NY, 1:1000) were used. BrdU- and Hoechst-stained nuclei were counted in 3-5 fields and the ratio of BrdU positive to Hoechst positive nuclei was used to determine the proliferation rate in vitro.
as §2, §3, §4, §5

HEI-193 NF2 VS cell line [4] = assay: TUNEL cell death assay in HEI-193 cells; format: cell-based, human; conditions: 48 hours
Method: (§7) Rate of apoptosis in 6 VS cultures was assessed and correlated with tumor growth in vivo and tumor volume. Two out of the six VS had cystic components. Apoptosis was measured using terminal deoxynucleotidyl transferase dUTP nick end labeling (TUNEL, Roche Applied Sciences, NY) following manufacturer's instructions. Briefly, immunofluorescence protocol was followed as described under ‘Immunofluorescence,’ until fixations, then the cells were washed with PBS thrice and incubated in 1% Triton-X for 10 minutes on shaker. The cells were washed with PBS once and incubated in TUNEL mix for 1 hour at 37° C., then for 30 minutes at RT on shaker. The cells were then incubated in rhodamine phalloidin (Life Technologies, NY, 1:40) and Hoechst stain for 20 minutes, washed with PBS thrice and mounted onto slides for imaging. TUNEL and Hoechst stained nuclei were counted in >3 fields and the ratio of TUNEL positive to Hoechst positive nuclei was used to determine apoptosis rate in vitro. A positive control of 10 minutes-DNAse (Roche Applied Sciences, NY) treatment prior to TUNEL labeling was utilized.
(§8) The same methodology as described in Example 1 was utilized for primary VS and SC cultures. Cultures were treated with NF-κB inhibitors approximately after 2 weeks of culturing. HEI-193 cell line was a gift from Dr. Giovannini at the House Ear Institute (Hung et al., 2002a).
as §1, §2, §3

HEI-193 NF2 VS cell line [5] = assay: BrdU proliferation assay in HEI-193 cells; format: cell-based, human; conditions: 48 hours
Method: as §6, §8, §1, §2, §3

primary SCs [6] = assay: TUNEL cell death assay in primary Schwann cell cultures; format: cell-based, human; conditions: human, 48 h
Method: as §7, §2, §3

[7] = tested on: cochlear explant cultures (hair cells and neurites); assay: Murine cochlear explant culture, hair cell, neurite and fiber damage counts; format: cell-based, CBA/CaJ mice; conditions: 100 ng/mL FGF2 pre-application plus 1 mM gentamicin, 48 hours total
Excerpt: To develop an animal model to study hearing loss due to VS, cochlear explant cultures were established from postnatal CBA/CaJ mice aged P3-P5 (Jackson Laboratory, ME). Briefly, after decapitating the mouse, temporal bones were dissected from the skull in Hank's Balanced Salt Solution (Life Technologies, NY). The otic capsule encasing the cochlea was dissected out from each temporal bone. The otic capsule was carefully stripped away and the spiral ligament was peeled away from the entire cochlea, starting from the base. The basal turn of cochlea was then isolated using the dissecting knife (Fine Science Tools, CA), discarding the apical turn hook region. The tectorial membrane and the Reissner's membrane were removed, leaving the organ of Corti intact with the spiral ganglion neuron region. This explant was cultured onto a 10 mm glass coverslip coated with CellTak (BD Biosciences, CA, #354241) in a 35 mm culture dish with 4 wells. Cells were cultured in 98% DMEM, 1% ampicillin and 1% N2 supplement.
To assess FGF2's otoprotective effect, cochlear explant cultures were treated with recombinant human FGF2±gentamicin. After culturing the explants overnight, media fortified with FGF2 (100 ng/mL) was applied. Twenty-four hours later media fortified with gentamicin (1 mM) and FGF2 (100 ng/mL) was applied. […] Cochlear explants were fixed after an additional 24 hours of treatment, with total time being 48 hours.
After treatment, the explants were fixed and stained with antibodies against myosin 7A (Myo7A, Proteus Biosciences, CA) and β-tubulin (Tuj1, Covance, MA) to identify hair cells (HCs) and neurons, respectively. The same immunofluorescence protocol as described in Example 1 was used, with the exceptions of omission of […] HCl incubation, usage of 5% NHS with 1% Triton-X for blocking solution and 1% NHS with 0.4% Triton-X solution for primary antibody incubation at room temperature (RT). Secondary antibodies (Alexa Flour 555 anti-mouse and Alexa Four 488 anti-rabbit) were purchased from Life Technologies. Cochlear explants were imaged using a Leica TCS SP5 Confocal microscope. Zoomed-in pictures for the region of organ of Corti, including neurites, were merged in a z-stack to obtain a z-axis projection image in the Leica software. The number of hair cells (HCs) and neurites were manually counted per 100 μm length along the cochlea, with 1-2 samplings per specimen.
The same general methodology for murine cochlear explant cultures as described in Example 5 was utilized. Cochlear explant cultures were established from P2-P3 mice. Importantly, instead of only culturing the basal turn, the apical turn was also isolated, providing two pieces per cochlea with a greater frequency range. After approximately 12 hours, the cochlear explant cultures were treated for 48 hours with tumor secretions diluted to half their concentration. The formulation was 46.5% tumor-conditioned DMEM, 46.5% plain DMEM, 5% FBS, 1% ampicillin and 1% N2 supplement. Cochlear explants were treated with control media in parallel, being 46.5% DMEM incubated without tumor, 46.5% plain DMEM, 5% FBS, 1% ampicillin and 1% N2 supplement. All reagents were purchased from Life Technologies, NY. Osmolality in the solutions was measured in samples using a vapor-pressure osmometer (standardized with 290 mOsm/kg of 0.1567M sodium chloride solution) before applying them onto cochlear explants. Extra formulation for each VS secretion was made to be tested on Milliplex arrays and ELISA. Milliplex array, containing FGF2, VEGF-A and HGF beads (Millipore) and human TNFα ELISA (R&D Systems) were conducted as directed by the manufacturer on VS secretions prior to being applied onto the cochlear explant cultures.
Cochlear explants were fixed 48 hours after treatment and the same methodology for VS secretion application as described in Example 5 was utilized. […]

## Nc1ccc(O)c(C(=O)O)c1 [5-ASA, 5-aminosalicylic acid]
Primary VS cells [1]; 5 mM
  cell death rate: 5.6±3.2%
Primary VS cells [2]; 5 mM
  proliferation, of the NT cells: 55%
Primary VS cells [2]; 10 mM
  proliferation, of the NT cells: 54.8±16.5%
Primary SCs [3]; 5 mM
  proliferation, of the NT cells: 107.8±22.4%
Primary SCs [3]; 10 mM
  proliferation, of the NT cells: 109.7±26.7%

## Cc1[nH]c(/C=C2\C(=O)Nc3ccc(S(=O)(=O)N(C)c4cccc(Cl)c4)cc32)c(C)c1C(=O)N1CCN(C)CC1 [SU11274]
Primary VS cells [2]; 2 μM, 12 hours then BrdU 20 hours
  proliferation, of VS cells treated with DMSO only: 22.4±11.7%

## COc1cc(/C=C/C(=O)CC(=O)/C=C/c2ccc(O)c(OC)c2)ccc1O [curcumin]
Primary VS cells [1]; 5 μM
  cell death rate: 11.6±6.3%
Primary VS cells [1]; 20 μM
  cell death rate: 1.8±1.0%
Primary VS cells [1]; 50 μM
  cell death rate: 73.3±6.3%
HEI-193 NF2 VS cell line [4]; 5 μM
  cell death rate: 0.3±0.1%
HEI-193 NF2 VS cell line [4]; 20 μM
  cell death rate: 77.3±8.4%
HEI-193 NF2 VS cell line [4]; 50 μM
  cell death rate: 97.8±1.5%
HEI-193 NF2 VS cell line [5]; 5 μM
  normalized proliferation rate: 95.0±1.6%
HEI-193 NF2 VS cell line [5]; 20 μM
  normalized proliferation rate: 0.4±0.4%
HEI-193 NF2 VS cell line [5]; 50 μM
  normalized proliferation rate: 2.3±2.3%
Primary SCs [6]; 5 μM
  apoptosis / cell death rate: 1.3±0.3%
Primary SCs [6]; 20 μM
  cell death rate: 1.7±0.4%
Primary SCs [6]; 50 μM
  cell death rate: 52.2±14.9%
Primary VS cells [2]; 5 μM
  proliferation, of the non-treated cells: 141.8%±95.2%
Primary VS cells [2]; 20 μM
  proliferation, of the non-treated cells: 23.0±20.9%
Primary SCs [3]; 5 μM
  normalized proliferation rate: 85.3±25.7%
Primary SCs [3]; 20 μM
  normalized proliferation rate: 31.0±18.3%
Primary SCs [3]; 50 μM
  normalized proliferation rate: 3.14%

## FGF2: recombinant human FGF2
[7]
  number of neurites per 100 μm: 13.7±5.5 per 100 μm
  total number of HCs per 100 μm length: 15.0±4.6 per 100 μm
